According to patent US20220226270A1, “VERY-LONG-CHAIN POLYUNSATURATED FATTY ACIDS, ELOVANOID HYDROXYLATED DERIVATIVES, AND METHODS OF USE” (Board of Supervisors of Louisiana State University and …, priority 2019, published 2022):

Legend:
[1] = system: hippocampal mixed neuronal culture; assay: Oxygen glucose deprivation (OGD) in hippocampal mixed neuronal culture; assay type: cell-based, rat; conditions: 500 nM, DIV 12, 90 min OGD (FIG. 18G)
From the text: Primary cultures of cortical neurons: Primary cultures of cortical and hippocampal neurons were harvested from 18-day-old embryos (E18) taken from timed-pregnant, two-month-old Sprague-Dawley (SD) rats (Charles River Lab., Wilmington, Mass.). Briefly, timed-pregnant SD rats were euthanized and embryos were collected in sterile conditions. Embryonic brains were dissected out by forceps on ice and placed in a petri dish containing ice-cold Hank's Balanced Salt Solution (HBSS) (GIBCO). Meninges were removed under a dissecting microscope and cortical tissues were chopped into small pieces with micro-spring scissors. These tissues were transferred to 15 ml tubes containing trypsin-EDTA (0.025% in HBSS) and DNase I. The tubes were incubated in 37° C. chamber for 15 mins and were agitated every 5 mins. After stopping the trypsinization with 5 ml 10% FBS, these tissues were triturated 15 times with a fire polished Pasteur pipet. Cell clumps were left to settle for 2 mins and the supernatant was transferred to a 15 ml Eppendorf tube. The supernatant was filtered through a 70 μm pore-sized filter (Corning cell strainer) and centrifuged for 5 mins at 1000 rpm. The cells were then resuspended in Neurobasal medium (GIBCO) containing 2% B27 (GIBCO) and 2% N2 (GIBCO) supplements, along with 0.5 mM glutamine, 50 U/ml penicillin/streptomycin.
Oxygen glucose deprivation (OGD), NMDA excitotoxicity or uncompensated oxidative stress (UOS) exposure: An in vitro oxygen glucose deprivation (OGD) model was established. Primary cortical neurons were cultured from SD rat embryos. On day in vitro (DIV) 12, cells were washed with phosphate-buffered saline and incubated in glucose-free Neurobasal medium (GIBCO) for 30 mins. The cells were then placed in a modular incubator chamber and incubated in an anaerobic chamber (95% N2, 5% CO2) at 37° C. for 90 mins for OGD.
After 90 mins of OGD exposure, cells were returned to the original medium (Neurobasal medium (GIBCO) containing 2% B27 (GIBCO) and 2% N2 (GIBCO) supplements, along with 0.5 mM glutamine, 50 U/ml penicillin/streptomycin) and placed in a normoxic chamber (37° C., 5% CO2) for 2 h. Then the medium was changed with medium containing either ELV-N32 or ELV-N34 [500 nM] and maintained in a normoxic chamber (37° C., 5% CO2) for 12 h, after which cells were sampled and assayed for cell viability using different methods as previously described (25-28). […]
One 4×4 tile mosaic was acquired from the center of each well using a Zeiss 510 Meta laser confocal microscope and LSM 510 Meta software. […] An Otsu auto threshold was applied to each image of Hoechst-stained nuclei, and the area of each detected object was recorded. […]

primary human RPE cells = assay: UOS-induced cell death in primary human RPE cells (Hoechst staining); assay type: cell-based; conditions: for UOS-induced primary human RPE cell death: UOS for 16 h + 32:6n3 or 34:6n3 (FIG. 8C); for cell death (apoptosis): UOS with H2O2 (800 μM), 16 h, VLC-PUFAs 3 μM each, NPD1 200 nM, UOS alone 50% cell death
Description: Exposure of RPE cells to UOS and VLC-PUFA: For cell viability assay experiments hRPE cells were treated concomitantly with NPD1 (200 nM), 32-6, 34-6 (3 μM each) fatty acids or both 32-6 and 34-6 simultaneously. The hRPE medium was supplemented with 3 μM of 32-6 and 34-6 for the entire duration of the experiment. 15 lox-1 inhibitor (10 μM) was added to the cells 1 hour prior the OS induction and kept throughout the experiment. Cells were fixed with 4% PFA and stained with Hoescht.
To assess cell death, hRPE and ARPE-19 cells were fixed with methanol for 15 mins, washed with 1× PBS then loaded with 2 μM Hoechst dissolved in a Locke's solution (Promega) and incubated for another 15 mins before imaging. Cells were then viewed by using a Zeiss LSM 510 confocal microscope under UV fluorescence. Images were recorded and cell apoptosis was assessed by using an automated unbiased method.
To test the efficacy of 32:6n3 and 34:6n3 VLC-PUFAs to modulate human RPE cell homeostasis and survival rates, human RPE cells undergoing UOS were incubated with both VLC-PUFAs (3 μM each) and NPD1 (200 nM) 16 h. The addition of H2O2 (800 μM) induced apoptosis (50% cell death).
hRPE cells, formerly serum deprived for 12 h, were incubated with the 15 lipoxygenase 1 (15-LOX-1) inhibitor (PD146176) (10 μM for 1 h), then bathed with 600 μM H2O2/TNF-α in conjunction with a mixture of 32:6n3 and 34:6n3 (3 μM each) for 16 h. The 15-LOX-1 inhibitor sensitizes cells; therefore, a lower concentration of H2O2 than in the cytoprotection experiment was used.

Structure (SMILES): CC/C=C\C[C@H](O)\C=C/C=C/C=C/[C@H](O)C/C=C\C/C=C\CCCCCCCCCCCCCCC(=O)[O-].[Na+] [ELV-N34-Na, sodium (16Z,19Z,22R,23E,25E,27Z,29S,31Z)-22,29-dihydroxytetratriaconta-16,19,23,25,27,31-hexaenoate]
- neuroprotection after OGD (Hoechst positive nuclei counting) [1]: neuroprotection elicited

Structure (SMILES): CC/C=C\C/C=C\C/C=C\C/C=C\C/C=C\C/C=C\CCCCCCCCCCCCC(=O)O [32:6n3, (14Z,17Z,20Z,23Z,26Z,29Z)-dotriaconta-14,17,20,23,26,29-hexaenoic acid]
- neuroprotection after OGD (Hoechst positive nuclei counting) [1]: showed neuroprotection
- UOS-induced primary human RPE cell death (primary human RPE cells): cell death was prevented
- cell death (apoptosis) (primary human RPE cells): 4%

Structure (SMILES): CC/C=C\C[C@H](O)\C=C/C=C/C=C/[C@H](O)C/C=C\C/C=C\CCCCCCCCCCCCC(=O)[O-].[Na+] [ELV-N32-Na, sodium (14Z,17Z,20R,21E,23E,25Z,27S,29Z)-20,27-dihydroxydotriaconta-14,17,21,23,25,29-hexaenoate]
- neuroprotection after OGD (Hoechst positive nuclei counting) [1]: neuroprotection elicited

Structure (SMILES): CC/C=C\C/C=C\C/C=C\C/C=C\C/C=C\C/C=C\CCCCCCCCCCCCCCC(=O)O [34:6n3, (16Z,19Z,22Z,25Z,28Z,31Z)-tetratriaconta-16,19,22,25,28,31-hexaenoic acid]
- neuroprotection after OGD (Hoechst positive nuclei counting) [1]: showed neuroprotection
- UOS-induced primary human RPE cell death (primary human RPE cells): cell death was prevented
- cell death (apoptosis) (primary human RPE cells): 18%
